Here are results for one substance from patent publication US20080242594A1, “Methods for Promoting Stem Cell Proliferation and Survival” (priority 2005, published 2008).

The test system of test [1] is E13.5 cortical stem cells. The experiment in a line: Differentiation potential of embryonic CNS stem cells after Notch ligand treatment. As to conditions: 5 days treatment in bFGF2 20 ng/ml, then mitogen withdrawal (WD) 3 days. The test is classed as cell-based, mouse. Here is the method:
To test whether Notch activation promoted differentiation or fate commitment, these cultures were treated with either Jagged-1 or Delta-4 for 5 days, […] The proportion of cells expressing genes characteristic of the stem or differentiated cells was determined (FIG. 8A).
The multipotentiality of treated cells was tested more rigorously by plating them at clonal density (50 cells/cm^2). Following five days of Delta-4+FGF2 treatment and 5 days of differentiation, 65% of the clones contained GFAP+, TUJ1+, and CNPase+ cells (FIG. 8B).

Another test deals with HSF6 hES cells. The experiment in a line: hES single cell plating efficiency, HSF-6. Type of test: cell-based, human. The note with it: singly dissociated cells on MEFs, treated daily for one week. From the text: The human ES cell lines HSF-6 (University of California, San Francisco; NIH # UC06, Passage 38-120) and H1 and H9 (WiCell Research Institute, NIH # WA01 and […]) were maintained on mouse embryonic fibroblasts (MEF) according to the suppliers' protocols. Immunocytochemistry and FACS analysis for the expression of Oct4 and SSEA4 and SKY karyotyping established that the starting cells are undifferentiated and have a normal set of chromosomes. For single cell survival experiments, hES colonies were harvested after treatment with 1.5 mg/ml collagenase type IV (Invitrogen), separated from the MEF feeder cells by repeated washing by gravity, gently triturated to break up colonies into small aggregates, further dissociated into a single cell solution by trypsination (0.05% trypsin/0.04% EDTA) and transferred on MEF feeder cells at a density of 10000 cells/ml. Oct-4 positive colonies were counted six days after plating. […]
The pro-survival effects of activation of Notch and inhibition of JAK was tested on HSF-6 (NIH code UC06, http://escell.ucsf.edu), H1 (NIH code WA01, www.wicell.org) and H9 (NIH code WA09, www.wicell.org) hES cells. Singly dissociated hES cells were plated on mouse embryo fibroblasts (MEFs), treated daily for one week and colony numbers counted. […]

The test system of another test is Adult SVZ CNS SC. The test is described as follows: Multi-potentiality of adult CNS stem cells after mitogen withdrawal. Type of test: cell-based, rat. As to conditions: FGF2 20 ng/ml 7 days, mitogen withdrawal 7 days. Here is the method: Very little protein or mRNA were detected outside the SVZ (FIG. 4g). Adult CNS stem cells can be cultured as a monolayer in vitro (FIG. 4h) and they show similar responses to extracellular signals that regulate stem cell differentiation upon withdrawal of the mitogen that sustains the undifferentiated state (Johe et al., Genes Dev 10:3129-40, 1996). To ask if Notch activation promotes survival in rat adult SVZ cultures, isolated cells were grown in the presence of FGF2 with and without Delta-4 for one week. […] When FGF2 was withdrawn for a week, cells at clonal density generated all three CNS lineages (FIG. 8C, Table 4).

For another test, the system named is adult rats. The test is described as follows: Intraventricular infusion in normal adult rats, BrdU labeled cells. The test is classed as in vivo, rat. On the procedure: In-vivo Experiments: All drugs were infused over one week using an Alzet osmotic pump (model 2001 delivering at a rate of 1 μl/hr for seven days). Briefly, an intracerebral cannula connected to the pump was inserted into the right lateral ventricle using the following stereotaxic coordinates: bregma AP +0, Lateral −1.5 mm dorso-ventral 3.3 mm. Animals received IP injection of the tracer BrdU (50 mg/kg) every 12 hours for 5 days beginning on day one post-operatively to label dividing cells.
(§1) Immuno-positive cells were analyzed by confocal microscopy counted using a non-biased system on slides obtained from homologous coronal slices containing the infarct of each animal at the position between +0.2 and −3.8 mm from the center of the bregma according to stereotaxic coordinates. Cells were enumerated in […] regions of interest, on both the ipsilateral and contralateral hemispheres (to cannula, or cannula and ischemic focus): subventricular zone (SVZ), corpus callosum and white matter and the peri-infarct cortex.
The effect of intraventricular administration of Delta-4 was studied in adult rats. As in other tissues, the numbers of stem cells in the adult CNS are precisely controlled. […] In vivo manipulations were designed to ask if Notch ligands can act alone or substantially alter the effect of FGF2 on the numbers of proliferating cells in the SVZ of the normal brain. Animals (N=5-6 per treatment) were fitted with a mini-osmotic pump administering artificial cerebrospinal fluid (ACSF, vehicle), FGF2, Delta-4, or a combination FGF2+Delta-4 for one week into the ventricles of three-month old rats. Animals were also given twice-daily injections of bromodeoxyuridine (BrdU) from post-op days two to six to label cells generated during this time window. Two groups of animals were analyzed at day 7 and day 45 relative to the initiation of protein delivery. Delta-4 doses were chosen to provide a roughly equal concentration in the rat adult cerebrospinal fluid as in the cell culture medium of our in vitro experiments.
Background: Incorporation of labelled thymidine or its analogues reports DNA synthesis.

The test system of test [2] is spontaneously hypertensive rats (SHR) with permanent middle cerebral artery occlusion. The experiment in a line: Focal ischemia (PMCAO) in rats with intraventricular infusion. The test is classed as in vivo, rat. As to conditions: stroked animals. Here is the method: For the induction of focal ischemia in rats, male spontaneously hypertensive rats (SHR) underwent permanent middle cerebral artery occlusion (PMCAO) (Leker et al., Stroke 33:1085-92, 2002). This is a highly reproducible model of focal irreversible cerebral ischemia that results in isolated fronto-parietal cortical injury. For motor disability evaluations, animals were analyzed with a standard motor disability protocol (Leker et al., Stroke 34:2000-6, 2003).
as §1
There is growing evidence for an endogenous repair process following injury to the telencephalon. […]
Treatment with Notch ligand with or without FGF2 increased the number of cells that were BrdU labeled in the days immediately following the injury and these cells survived for an additional 5 weeks (FIG. 6d). […] The behavior of animals in the 45 day groups were assessed at the indicated time points.

Turning to “FGF2: fibroblast growth factor FGF2 (233-FB) from R&D”, in test [1], the “% Glia (GFAP)” value is recorded as 49.53 ± 4.79%, the “% Neurons (TUJ1)” value came to 42.37 ± 6.85% and the “% Oligodendrocytes (CNPase)” value turned out to be 9.12 ± 2.82%. The “plating efficiency relative to FGF2 controls” value in the test on HSF6 hES cells is 100%±15.35. For the same substance, in the test on Adult SVZ CNS SC, the “% Glia (GFAP)” value was 51.8 ± 10.3%, the “% Neurons (TUJ1)” value came to 43.3 ± 10.7% and the “% Oligodendrocytes (CNPase)” value was found to be 9.4 ± 2.6%. In the test with adult rats (day 7, contralateral site), the “number of proliferating cells / BrdU incorporation” value is given as “no significant effect over vehicle”. For the same substance, in the test with adult rats (day 7, hemisphere ipsilateral to the cannula), the “number of BrdU labeled cells in SVZ, corpus callosum and cortex” value is listed as “increased the number of BrdU labeled cells”. The “size of the injury” value in test [2] is 21.0%±3.5 % of hemisphere volume.
